Measurements published in patent US6781000B1, “Alpha-ketoamide inhibitors of 20S proteasome” (CV Theurapeutics, Inc., priority 1998, dated 2004).

Tests used:
[1] = molecular target: T1, chymotrypsin-like activity of 20S proteasome (Bos taurus, UniProt Q2TBX6+Q32KL2); test: 20S proteasome chymotryptic activity inhibition assay (Suc-Leu-Leu-Val-Tyr-AMC cleavage); type: biochemical; settings: 2 μg 20S proteasome from bovine brain, 50 μM fluorogenic substrate, 15 minutes at 37° C., pH7.5
T1 construct: was purified to homogeneity from bovine brain according to published methods; from tissue; host or cells: bovine brain
How it was run: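 Bovine brain 20S proteasome (2 μg) with inhibitor at 0.1-100 μg/ml in 50 mM HEPES, 0.1% SDS, pH7.5. Reaction started with 50 μM Suc-LLVY-AMC, run 15 min at 37° C, stopped with pH 4.0 acetate; liberated AMC read by fluorescence (EX 370 nm, EM 430 nm).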

[2] = molecular target: T2, peptidylglutamyl activity of 20S proteasome (Bos taurus, UniProt Q2TBP0+Q3MHN0); test: 20S proteasome peptidylglutamyl activity inhibition assay (CBZ-D-Ala-Leu-Glu-AMC cleavage); type: biochemical; settings: Example 6: 2 μg 20S proteasome from bovine brain, substrate CBZ D-Ala-Leu-Glu-AMC, 15 minutes at 37° C.
T2 construct: was purified to homogeneity from bovine brain according to published methods; from tissue; host or cells: bovine brain
Experimental: Compounds of this invention prepared according to the method of Example 1 were also tested as follows. The 20S catalytic subunit of the proteasome (also known as the multicatalytic proteinase complex) was purified to homogeneity from bovine brain according to published methods (Wilk S. and Orlowski, M. 1983, 40 842 J. Neurochem). […] of the complex is measured by the increase in fluorescence following cleavage of the substrate peptide CBZ D-Ala-Leu-Glu-(7-amino-4-methyl coumarin). The standard in vitro assay consists of 2 μg 20S proteasome, 0.1-100 μg/ml proteasome inhibitor in […] 50 mM HEPES, containing 0.1% sodium dodecyl sulphate, pH 7.5. The proteolytic reaction is initiated by the addition of […] fluorogenic peptide substrate and allowed to progress for 15 minutes at 37° C. The reaction is terminated by the addition of […] 100 mM acetate buffer, pH 4.0. The rate of proteolysis is directly proportional to the amount of liberated aminomethylcoumarin which is measured by fluorescent spectroscopy (EX 370 nm, EM 430 nm). Compounds 1-207 were tested for peptidylglutamyl activity inhibition at >10 μg/mL. Compound 190 was active at 5 μg/mL.

CC(C)CC(NC(=O)C(Cc1ccc(-c2ccccc2)cc1)NC(=O)C(=O)Cc1c[nH]c2ccccc12)C(=O)NC(Cc1c[nH]cn1)C(=O)O (centres unmarked) [Compound 190]
IC50 for the inhibition of the chymotrypsin-like activity of 20S proteasome [1]: 3 mg/L
peptidylglutamyl activity inhibition, active at [2]: 5 µg/mL

CC(C)CC(NC(=O)C(Cc1ccc2ccccc2c1)NC(=O)C(=O)Cc1c[nH]c2ccccc12)C(=O)NC(Cc1c[nH]cn1)C(=O)O (centres unmarked) [Compound 204]
IC50 for the inhibition of the chymotrypsin-like activity of 20S proteasome [1]: >10 mg/L

CC(C)CC(NC(=O)C(Cc1ccc2ccccc2c1)NC(=O)C(=O)Cc1c[nH]c2ccccc12)C(=O)NC(CCCNC(=N)N)C(=O)O (centres unmarked) [Compound 205]
IC50 for the inhibition of the chymotrypsin-like activity of 20S proteasome [1]: >10 mg/L

CC(C)CC(NC(=O)C(Cc1ccc2ccccc2c1)NC(=O)C(=O)Cc1c[nH]c2ccccc12)C(=O)NC(Cc1cccnc1)C(=O)O (centres unmarked) [Compound 206]
IC50 for the inhibition of the chymotrypsin-like activity of 20S proteasome [1]: >10 mg/L
